Values joined by “and” are separate entries in the source; they are usually repeats but may differ in a detail not shown here. Identical values can stand only once. Like-named read-outs stand apart in the source and are kept apart here.
Legend:
[1] = system: testicular hyaluronidase; test: Inhibition of hyaluronidase (turbidimetric); type: biochemical
Description: The heparanase inhibitors were incubated with testicular hyaluronidase in the presence of hyaluronan and after incubation the amount of hyaluronic acid remaining was quantitated. Hyaluronidase activity was measured according to the method of Tolksdorf [Tolksdorf, S. & McCready, M. H., The turbometric determination of hyaluronidase, The Journal of Laboratory and Clinical Medicine, 1949, 34(1):74-89]. Hyaluronic acid is measured by its ability to form turbidity with an acid albumin solution. […] One unit is based on the change in absorbency (turbidity) at 540 nm of an internal USP standard. All tubes were placed in a boiling water bath for 5 min and then cooled to room temperature. On cooling 9.0 ml of albumin reagent was added and tubes were allowed to stand for 10 min. Readings of absorbance at 540 nm in a Pharmacia Novatec Model II were taken. The A540nm was plotted versus the hyaluronic acid concentration (mg) to form a standard curve.

[2] = system: human dermal fibroblast cell line, CRL2071; test: Production of collagen type I (ELISA); type: cell-based
Description: (§1) Cells from the human dermal fibroblast cell line, CRL2071 (passages 12-14), obtained from normal breast skin of a person, were allowed to attach for 6-8 hours before the addition of the test compounds. After 72 h of exposure to the test articles the media was removed, cells counted and the cell-associated fraction extracted. The media and cell-associated fraction were analysed for the concentration of collagen type I using a Chondrex Human type I Collagen Detection Kit ELISA (Cat #6021).
After complete dissolution the solutions were sterile filtered through a […] syringe filter and kept at 4° C. until use. Prior to each experiment dilutions were freshly prepared by diluting to 100 nM, 1 μM or 10 μM in cell-specific media.
(§2) The test compounds, positive controls and no treatment media were added to the flasks (2.5 ml/flask) and cells were incubated for 72 h before removal of the supernatant. After removal of the supernatant, cell monolayers were trypsinsed with 2.5 ml of 0.025% trypsin/[…] in PBS to each flask. After cell detachment (7-10 min), 1 ml of the cell/trypsin mixture was added to a 20 ml counting vial containing 9 ml of normal saline. The cells were quantitated with a Coulter Counter Z2.
(§3) In some treatments cells were found floating. They were collected, counted and subjected to viability testing using 1% trypan blue staining. The remaining 1.5 ml of trypsin/cell mixture was sonicated with a Branson tip-probed sonicator for 1 min, setting 6 before centrifugation at 10,000 rpm for 10 min. The supernatant was removed and used in the collagen ELISA for the quantitation of cell-associated collagen.

[3] = target: T1, cellular tyrosinase, human primary epidermal melanocyte cell line (PCS-200-013) (Homo sapiens, UniProt P14679)
T1 sequence (P14679 19-529): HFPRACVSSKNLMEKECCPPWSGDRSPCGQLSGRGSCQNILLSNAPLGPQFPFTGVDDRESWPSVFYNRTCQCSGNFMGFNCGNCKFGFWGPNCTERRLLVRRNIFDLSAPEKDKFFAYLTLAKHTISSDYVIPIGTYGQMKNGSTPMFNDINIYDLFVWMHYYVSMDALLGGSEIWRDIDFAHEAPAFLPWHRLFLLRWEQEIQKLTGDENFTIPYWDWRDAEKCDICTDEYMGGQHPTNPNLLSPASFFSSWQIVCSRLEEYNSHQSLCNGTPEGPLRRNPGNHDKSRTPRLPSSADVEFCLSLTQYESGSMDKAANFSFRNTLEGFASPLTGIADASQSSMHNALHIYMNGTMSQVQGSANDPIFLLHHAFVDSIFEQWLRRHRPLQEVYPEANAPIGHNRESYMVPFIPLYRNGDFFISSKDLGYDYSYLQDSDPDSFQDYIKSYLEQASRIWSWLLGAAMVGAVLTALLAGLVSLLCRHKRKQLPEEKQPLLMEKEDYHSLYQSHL

[4] = system: ND41001 (AD) fibroblast cell line; test: NPC cholesterol activity: filipin staining, LSO ratio; type: cell-based, human; settings: 10 μM, 48 hours
Excerpt: (§4) Fibroblast cell lines derived from Alzheimer and Niemann-Pick Type C (NPC) patients and healthy controls were obtained from the […] (Camden, N.J., USA). Cell line GM03123 was derived from a NPC patient with two heterozygous mutations in the NPC1 gene. Cell line GM09503 was used as a healthy control for the NPC cell line. Cell line ND41001 was derived from a patient carrying a Presenilin 1 mutation with familial (early onset) Alzheimer's disease (AD). Cell line ND38530 was used as a healthy control for the AD cell line. Further details of the cell lines are available at the Cornell Cell Repository website (https://catalog.coriell.org/).
(§5) Cell culture work was carried out in sterile conditions in an Email Air Handling Class II Biological Safety Cabinet (AES Environmental Pty LTD, Australia). All cell lines were cultured in DMEM (10313-021, Life Technologies New Zealand) supplemented with 10% fetal calf serum (Thermo Fisher Scientific New Zealand), 1× GlutaMAX™ Supplement (stabilised L-glutamine, Gibco Life Technologies New Zealand), 100 units/mL penicillin and 100 units/mL streptomycin (Life Technologies New Zealand). Cell lines were maintained in or 75 cm^2 flasks (Corning, Invitro Technologies New Zealand) in a humidified incubator (Sanyo Electric Co. Ltd, Japan) at 37° C. and 5% CO2. Experimental cultures were carried out in the same media omitting the antibiotics to avoid any potential interaction with the compound being tested.
(§6) For experiments, cells were seeded at a density of 1.25×10^3 cells/mL in black, 96 well plates (Cell-carrier, Perkin Elmer, Scimed New Zealand) in a volume of 100 μL media and grown for 24 hours before treating. The media was then replaced with fresh media supplemented with the required treatment. Cell lines GM03123 and ND41001 were either left untreated, or treated with either 10 μM or 100 μM of the heparan sulphate compound dissolved in sterile deionised water (dH20), 10 μM suberoylanilide hydroxamic acid (SAHA) dissolved in DMSO, or 0.1% DMSO. The healthy control cell lines GM09503 and ND38530 were left untreated or treated with U18666A dissolved in sterile dH20 at a final concentration of 1 μg/mL. U18666A causes cholesterol accumulation in the cell and is therefore a positive control for the filipin stain. Cells were then grown for 48 hours.
(§7) Before fixing, cells were washed three times with 1× phosphate buffered saline (PBS). From this point all treatments and washes were undertaken on a rotating table at 45 revs per minute. Cells were fixed with 1.5% paraformaldehyde (PFA) in 1×PBS (Thermo Fisher Scientific New Zealand) for 20 minutes. Cells were then washed with 1×PBS for four minutes. This was repeated twice. The cells were then stained for 2 hours with 50 μg/mL Filipin dye (Filipin complex from Streptomyces filipinensis, Sigma Aldrich, Australia) protected from the light. With minimal light exposure, the cells were washed with 1×PBS for four minutes and this was repeated twice. Cells were left in 1×PBS for confocal microscopy. The filipin stained cells were imaged using a Perkin Elmer Opera™ high-throughput spinning disk confocal microscope using 405 nm laser and 20× water immersion objective. Perkin Elmer Acapella™ software was used for image analysis. In NPC cells cholesterol accumulates in organelles with the characteristics of late endosomes or early lysosomes. These can be described as lysosome-like storage organelles (LSO). Analysis of free cholesterol levels in the cells was carried out using a method designed for high throughput confocal images described by Pipalia et al., Automated microscopy screening for compounds that partially revert cholesterol accumulation in Niemann-Pick C cells, J. Lipid Res., 2006, 47(2): 284-301. A low fluorescence threshold was chosen which identified the total area occupied by cells and another higher threshold was chosen to determine the areas of bright filipin staining of cholesterol within the cell. […]

[5] = system: GM03123 (NPC) fibroblast cell line; test: as above; type: cell-based, human; settings: GM03123 (NPC), 10 μM, 48 hours; LSO ratio treated/untreated x 100
Excerpt: as §4, §5, §6, §7

[6] = system: human dermal fibroblast cell line, CRL2071; test: Production of hyaluronan (ELISA); type: cell-based; settings: 72 h; for ng Hyaluronan/1 × 10^6 cells (Mean ± SD): liberated hyaluronan (>6400Da); for Hyaluronan as % of No Treatment Control (Mean ± SD): liberated
Description: as §1, with “hyaluronan” for “collagen type I”, “Hyaluronan” for “Chondrex Human type I Collagen”, “ELISA.” for “ELISA (Cat #6021).”
as §2
as §3, with “hyaluronan” for “collagen”, “hyaluronan.” for “collagen.”

[7] = cell-associated, 10 μg/ml, 72 h
[8] = cell-associated, 20 ng/ml, 72 h

## O=C(CCCCCCCNC(=O)CCOCC(COCCC(=O)NCCCCCCCC(=O)NCCCCCCOC1OC(COS(=O)(=O)[O-])C(OS(=O)(=O)[O-])C(OS(=O)(=O)[O-])C1OS(=O)(=O)[O-])(COCCC(=O)NCCCCCCCC(=O)NCCCCCCOC1OC(COS(=O)(=O)[O-])C(OS(=O)(=O)[O-])C(OS(=O)(=O)[O-])C1OS(=O)(=O)[O-])COCCC(=O)NCCCCCCCC(=O)NCCCCCCOC1OC(COS(=O)(=O)[O-])C(OS(=O)(=O)[O-])C(OS(=O)(=O)[O-])C1OS(=O)(=O)[O-])NCCCCCCOC1OC(COS(=O)(=O)[O-])C(OS(=O)(=O)[O-])C(OS(=O)(=O)[O-])C1OS(=O)(=O)[O-].[Na+].[Na+].[Na+].[Na+].[Na+].[Na+].[Na+].[Na+].[Na+].[Na+].[Na+].[Na+].[Na+].[Na+].[Na+].[Na+] (centres unmarked) [Compound 17d]
[1]; 100 nM
  Hyaluronidase inhibition as a % of the "No Treatment" control (Mean ± SD): 0 ± 0%
[1]; 1 μM
  Hyaluronidase inhibition as a % of the "No Treatment" control (Mean ± SD): 0 ± 0%
[1]; 10 μM
  Hyaluronidase inhibition as a % of the "No Treatment" control (Mean ± SD): 23 ± 1%
[1]; summary of Example 11
  inhibition of testicular hyaluronidase (in words): effective inhibitors of testicular hyaluronidase
[2]
  Collagen as % of No Treatment Control (Mean ± SD), Cell-associated: 3,076 ± 803% and 5,116 ± 231%
  μg collagen (Mean ± SD), Cell-Associated Collagen Type 1: 1.32 ± 0.35 µg and 2.20 ± 0.10 µg
[3]
  inhibitory effect on tyrosinase activity (in words): significant inhibitory effect on tyrosinase activity
[3]; 0.1 µM
  Tyrosinase inhibition as a % of the "No Treatment" control (Mean ± SD): 0 ± 0%
[3]; 1 μM
  Tyrosinase inhibition as a % of the "No Treatment" control (Mean ± SD): 0 ± 0%
[3]; 10 μM
  Tyrosinase inhibition as a % of the "No Treatment" control (Mean ± SD): 44 ± 2%

## O=C(CCCCCCC(=O)Nc1ccccc1)NO [SAHA, suberoylanilide hydroxamic acid, reference compound]
[4]
  LSO %: 42.4%
[5]
  LSO %: 43.0%

## CC1=C(/C=C/C(C)=C/C=C/C(C)=C/CO)C(C)(C)CCC1 [Retinol, reference compound]
[6]; 5 μg/ml
  ng Hyaluronan/1 × 10^6 cells (Mean ± SD): 576 ± 0 ng Hyaluronan/1 × 10^6 cells
  Hyaluronan as % of No Treatment Control (Mean ± SD): 1,346 ± 0%

## C=C[C@@](C)(/C=C/c1ccc(O)cc1)CCC=C(C)C [Bakuchiol, reference compound]
[2]; cell-associated, 5 μg/ml, 72 h
  Collagen as % of No Treatment Control (Mean ± SD), Cell-associated: 1,085 ± 60%
  μg collagen (Mean ± SD), Cell-Associated Collagen Type 1: 0.28 ± 0.02 µg
[2]; [7]
  Collagen as % of No Treatment Control (Mean ± SD), Cell-associated: 600 ± 348%
  μg collagen (Mean ± SD), Cell-Associated Collagen Type 1: 0.29 ± 0.01 µg
[2]; 5 μg/ml, 72 h
  Collagen as % of No Treatment Control (Mean ± SD), Liberated: 43 ± 17%
  μg collagen (Mean ± SD), Liberated Collagen Type 1: 0.02 ± 0.01 µg
[2]; 10 μg/ml, 72 h
  Collagen as % of No Treatment Control (Mean ± SD), Liberated: 357 ± 20%
  μg collagen (Mean ± SD), Liberated Collagen Type 1: 0.15 ± 0.01 µg

## TGF-β1: Transforming growth Factor β1, Sigma Aldrich, positive control
[6]; 20 ng/ml
  ng Hyaluronan/1 × 10^6 cells (Mean ± SD): 507 ± 68 ng Hyaluronan/1 × 10^6 cells
  Hyaluronan as % of No Treatment Control (Mean ± SD): 1,186 ± 159%
[2]; [8]
  Collagen as % of No Treatment Control (Mean ± SD), Cell-associated: 719 ± 57%
  μg collagen (Mean ± SD), Cell-Associated Collagen Type 1: 0.31 ± 0.02 µg
[2]; 20 ng/ml, 72 h
  Collagen as % of No Treatment Control (Mean ± SD), Liberated: 2,852 ± 285%
  μg collagen (Mean ± SD), Liberated Collagen Type 1: 1.23 ± 0.12 µg

B1: TGF-β2: Transforming growth Factor β2, Sigma Aldrich, positive control (protein, UniProt P61812 303-414, looked up)
Transforming growth factor …: ALDAAYCFRNVQDNCCLRPLYIDFKRDLGWKWIHEPKGYNANFCAGACPYLWSSDTQHSRVLSLYNTINPEASASPCCVSQDLEPLTILYYIGKTPKIEQLSNMIVKSCKCS
[2]; [8]
  Collagen as % of No Treatment Control (Mean ± SD), Cell-associated: 77 ± 9%
  μg collagen (Mean ± SD), Cell-Associated Collagen Type 1: 0.03 ± 0.00 µg
[2]; 20 ng/ml, 72 h
  Collagen as % of No Treatment Control (Mean ± SD), Liberated: 446 ± 73%
  μg collagen (Mean ± SD), Liberated Collagen Type 1: 0.19 ± 0.03 µg

From patent US11186603B2, “Heparan sulfate glycomimetic compounds and their pharmaceutical and cosmeceutical uses” (VICTORIA LINK LIMITED, priority 2017, dated 2021)
